In ChEMBL document CHEMBL5506069, “A Unique Hybridization Route to Access Hydrazylnaphthalimidols as Novel Structural Scaffolds of Multitargeting Broad-Spectrum Antifungal Candidates” (J Med Chem, 2024):
Converted amounts (≈) assume the structure as drawn.

How the values were obtained:
Assay type in all cases: functional
Candida parapsilosis = experiment: Antifungal activity against Candida parapsilosis ATCC 22019 assessed as inhibition of fungal growth incubated for 24 hrs by CLSI based microbroth dilution method; conditions: Lodderomyces parapsilosis
Candida albicans [1] = experiment: Antifungal activity against Candida albicans assessed as inhibition of fungal growth incubated for 24 hrs by CLSI based microbroth dilution method
Candida tropicalis = experiment: Antifungal activity against Candida tropicalis assessed as inhibition of fungal growth incubated for 24 hrs by CLSI based microbroth dilution method
Aspergillus fumigatus = experiment: Antifungal activity against Aspergillus fumigatus assessed as inhibition of fungal growth incubated for 24 hrs by CLSI based microbroth dilution method
Candida albicans [2] = experiment: Antifungal activity against Candida albicans ATCC 90023 assessed as inhibition of fungal growth incubated for 24 hrs by CLSI based microbroth dilution method

SMILES	MIC (Candida parapsilosis)	MIC (Candida albicans [1])	MIC (Candida tropicalis)	MIC (Aspergillus fumigatus)	MIC (Candida albicans [2])
O=C1c2cccc3c(N/N=C/c4cccnc4)ccc(c23)C(=O)N1CCO	89 µM (≈ 32.1 µg/mL)	711 µM (≈ 256 µg/mL)	355 µM (≈ 128 µg/mL)	355 µM (≈ 128 µg/mL)	355 µM (≈ 128 µg/mL)
CCCCc1nc(Cl)c(/C=N/Nc2ccc3c4c(cccc24)C(=O)N(CCO)C3=O)n1Cc1ccc([N+](=O)[O-])cc1	14 µM (≈ 8.05 µg/mL)	111 µM (≈ 63.8 µg/mL)	28 µM (≈ 16.1 µg/mL)	111 µM (≈ 63.8 µg/mL)	7 µM (≈ 4.03 µg/mL)
O=C1c2cccc3c(N/N=C/c4cccc(O)c4)ccc(c23)C(=O)N1CCO	341 µM (≈ 128 µg/mL)	341 µM (≈ 128 µg/mL)	682 µM (≈ 256 µg/mL)	171 µM (≈ 64.2 µg/mL)	341 µM (≈ 128 µg/mL)
CCCCc1nc(Cl)c(/C=N/Nc2ccc3c4c(cccc24)C(=O)N(CCO)C3=O)n1Cc1cccc(F)c1	29 µM (≈ 15.9 µg/mL)	117 µM (≈ 64.1 µg/mL)	58 µM (≈ 31.8 µg/mL)	58 µM (≈ 31.8 µg/mL)	7 µM (≈ 3.84 µg/mL)
CCN1C(=O)c2cccc3c(N/N=C(\C)Cn4c([N+](=O)[O-])cnc4C)ccc(c23)C1=O	1220 µM (≈ 512 µg/mL)	1220 µM (≈ 512 µg/mL)	1220 µM (≈ 512 µg/mL)	1220 µM (≈ 512 µg/mL)	1220 µM (≈ 512 µg/mL)
C/C(Cn1c([N+](=O)[O-])cnc1C)=N\Nc1ccc2c3c(cccc13)C(=O)N(c1ccc(Cl)cc1Cl)C2=O	119 µM (≈ 63.9 µg/mL)	238 µM (≈ 128 µg/mL)	238 µM (≈ 128 µg/mL)	238 µM (≈ 128 µg/mL)	953 µM (≈ 512 µg/mL)
CCCCCCN1C(=O)c2cccc3c(N/N=C(\C)Cn4c([N+](=O)[O-])cnc4C)ccc(c23)C1=O	1070 µM (≈ 512 µg/mL)	1070 µM (≈ 512 µg/mL)	1070 µM (≈ 512 µg/mL)	1070 µM (≈ 512 µg/mL)	1070 µM (≈ 512 µg/mL)
CCCCc1nc(Cl)c(/C=N/Nc2ccc3c4c(cccc24)C(=O)N(CCO)C3=O)n1Cc1ccccc1F	15 µM (≈ 8.22 µg/mL)	58 µM (≈ 31.8 µg/mL)	15 µM (≈ 8.22 µg/mL)	58 µM (≈ 31.8 µg/mL)	15 µM (≈ 8.22 µg/mL)
CCCCc1nc(Cl)c(/C=N/Nc2ccc3c4c(cccc24)C(=O)N(CCO)C3=O)n1CC(=O)OCC	244 µM (≈ 128 µg/mL)	30 µM (≈ 15.8 µg/mL)	2 µM (≈ 1.05 µg/mL)	61 µM (≈ 32.1 µg/mL)	61 µM (≈ 32.1 µg/mL)
CCCCc1nc(Cl)c(/C=N/Nc2ccc3c4c(cccc24)C(=O)N(CCO)C3=O)n1C	565 µM (≈ 256 µg/mL)	71 µM (≈ 32.2 µg/mL)	141 µM (≈ 64 µg/mL)	18 µM (≈ 8.17 µg/mL)	71 µM (≈ 32.2 µg/mL)
O=C1c2cccc3c(N/N=C/c4c(Cl)cccc4Cl)ccc(c23)C(=O)N1CCO	599 µM (≈ 257 µg/mL)	150 µM (≈ 64.2 µg/mL)	150 µM (≈ 64.2 µg/mL)	300 µM (≈ 128 µg/mL)	300 µM (≈ 128 µg/mL)
O=C1c2cccc3c(N/N=C/c4ccco4)ccc(c23)C(=O)N1CCO	351 µM (≈ 123 µg/mL)	87 µM (≈ 30.4 µg/mL)	87 µM (≈ 30.4 µg/mL)	87 µM (≈ 30.4 µg/mL)	175 µM (≈ 61.1 µg/mL)
C[n+]1ccccc1/C=N/Nc1ccc2c3c(cccc13)C(=O)N(CCO)C2=O	64 µM	32 µM	32 µM	127 µM	255 µM
O=C1c2cccc3c(N/N=C/c4ccc[nH]4)ccc(c23)C(=O)N1CCO	46 µM (≈ 16 µg/mL)	183 µM (≈ 63.8 µg/mL)	367 µM (≈ 128 µg/mL)	367 µM (≈ 128 µg/mL)	92 µM (≈ 32 µg/mL)
C/C(Cn1c([N+](=O)[O-])cnc1C)=N\Nc1ccc2c3c(cccc13)C(=O)N(CCO)C2=O	1170 µM (≈ 512 µg/mL)	1170 µM (≈ 512 µg/mL)	1170 µM (≈ 512 µg/mL)	587 µM (≈ 256 µg/mL)	1170 µM (≈ 512 µg/mL)
O=C1c2cccc3c(N/N=C/c4ccncc4)ccc(c23)C(=O)N1CCO	355 µM (≈ 128 µg/mL)	355 µM (≈ 128 µg/mL)	355 µM (≈ 128 µg/mL)	355 µM (≈ 128 µg/mL)	711 µM (≈ 256 µg/mL)
NN1C(=O)c2cccc3c(N/N=C/c4ccc([N+](=O)[O-])o4)ccc(c23)C1=O	21 µM (≈ 7.67 µg/mL)	21 µM (≈ 7.67 µg/mL)	5 µM (≈ 1.83 µg/mL)	10 µM (≈ 3.65 µg/mL)	5 µM (≈ 1.83 µg/mL)
CCCCCCCN1C(=O)c2cccc3c(N/N=C(\C)Cn4c([N+](=O)[O-])cnc4C)ccc(c23)C1=O	1040 µM (≈ 512 µg/mL)	1040 µM (≈ 512 µg/mL)	1040 µM (≈ 512 µg/mL)	1040 µM (≈ 512 µg/mL)	1040 µM (≈ 512 µg/mL)
C/C(Cn1c([N+](=O)[O-])cnc1C)=N\Nc1ccc2c3c(cccc13)C(=O)N(c1ccc(C(F)(F)F)cc1Cl)C2=O	239 µM (≈ 136 µg/mL)	477 µM (≈ 272 µg/mL)	477 µM (≈ 272 µg/mL)	477 µM (≈ 272 µg/mL)	954 µM (≈ 545 µg/mL)
CCCCc1nc(Cl)c(/C=N/Nc2ccc3c4c(cccc24)C(=O)N(CCO)C3=O)n1Cc1ccc(Cl)cc1Cl	13 µM (≈ 7.79 µg/mL)	54 µM (≈ 32.3 µg/mL)	54 µM (≈ 32.3 µg/mL)	214 µM (≈ 128 µg/mL)	3 µM (≈ 1.8 µg/mL)
CCCCc1nc(Cl)c(/C=N/Nc2ccc3c4c(cccc24)C(=O)N(CCO)C3=O)n1CCO	33 µM (≈ 16 µg/mL)	33 µM (≈ 16 µg/mL)	17 µM (≈ 8.23 µg/mL)	66 µM (≈ 31.9 µg/mL)	17 µM (≈ 8.23 µg/mL)
CCCCc1nc(Cl)c(/C=N/Nc2ccc3c4c(cccc24)C(=O)N(CCO)C3=O)n1CCN1CCOCC1	116 µM (≈ 64.2 µg/mL)	58 µM (≈ 32.1 µg/mL)	29 µM (≈ 16 µg/mL)	29 µM (≈ 16 µg/mL)	4 µM (≈ 2.21 µg/mL)
COc1ccc(N2C(=O)c3cccc4c(N/N=C(\C)Cn5c([N+](=O)[O-])cnc5C)ccc(c34)C2=O)cc1	257 µM (≈ 128 µg/mL)	514 µM (≈ 256 µg/mL)	514 µM (≈ 256 µg/mL)	1030 µM (≈ 512 µg/mL)	1030 µM (≈ 512 µg/mL)
CCCCCN1C(=O)c2cccc3c(N/N=C(\C)Cn4c([N+](=O)[O-])cnc4C)ccc(c23)C1=O	554 µM (≈ 256 µg/mL)	1110 µM (≈ 512 µg/mL)	1110 µM (≈ 512 µg/mL)	554 µM (≈ 256 µg/mL)	1110 µM (≈ 512 µg/mL)
